# pKi: −log10 of the molar value.
# Biological target: recombinant human 5-HT5A receptor (Homo sapiens, UniProt P47898)
# Assay: [3H]LSD radioligand binding assay
# Settings: [3H]LSD (approximately 1 nM); membranes from HEK-EBNA cells transiently expressing 5-HT5A; Ki by Cheng-Prussoff equation; read-out: Ki
# Protocol: A [^3H]LSD radioligand binding assay was used to determine the affinity of the compounds for the recombinant human 5-HT5A receptor, in membranes from transiently (cDNA) expressed 5-HT5A receptors in Human Embryonic Kidney-EBNA (HEK-EBNA) cells. Assay buffer consisted of Tris (50 mM) buffer containing 1 mM EGTA, 10 mM MgCl2 (pH 7.4) and 10 μM pargyline. The binding assay was carried out in 96-well-plates in the presence of [^3H]LSD (approximately 1 nM), approximately 2 μg/well of membrane protein, and 0.5 mg of Ysi-poly-1-lysine SPA beads in a final volume of 200 μl of buffer. Non-specific binding was defined using methiothepin 2 μM. Compounds were tested at 10 concentrations. All assays were conducted in duplicate and repeated at least two times. Assay plates were incubated for 120 min at room temperature before centrifugation. Bound ligand was determined using a Packard Topcount scintillation counter. IC50 values were calculated using a non-linear curve fitting program and Ki values calculated using the Cheng-Prussoff equation.
# Chain of recombinant human 5-HT5A receptor (P47898 whole entry): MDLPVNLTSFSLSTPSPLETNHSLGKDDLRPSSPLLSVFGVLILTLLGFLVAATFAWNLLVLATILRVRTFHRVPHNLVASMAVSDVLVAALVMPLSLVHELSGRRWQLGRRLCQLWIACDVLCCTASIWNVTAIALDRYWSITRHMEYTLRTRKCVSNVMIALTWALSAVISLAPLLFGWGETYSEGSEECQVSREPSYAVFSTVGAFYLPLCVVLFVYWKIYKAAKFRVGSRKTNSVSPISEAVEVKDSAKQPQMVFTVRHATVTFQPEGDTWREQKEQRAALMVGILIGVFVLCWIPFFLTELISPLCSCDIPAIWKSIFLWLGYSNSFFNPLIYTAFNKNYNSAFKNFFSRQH
row,pKi,Compound
1,8.30,"COc1cccc2c1C(NC1=Nc3ccc(NC(C)=O)cc3CO1)CC2 (racemic) [Example 52, rac-N-[2-(7-Methoxy-indan-1-ylamino)-4H-benzo[d][1,3]oxazin-6-yl]-acetamide]"
2,7.36,"Fc1ccc2c(c1)CCC2NC1=Nc2ccc(Br)cc2CO1 (racemic) [Example 53, rac-(6-Bromo-4H-benzo[d][1,3]oxazin-2-yl)-(5-fluoro-indan-1-yl)-amine]"
3,7.89,"O=C(CN1CCOCC1)Nc1ccc2c(c1)COC(NC1CCc3cc(F)ccc31)=N2 (racemic) [Example 56, rac-N-[2-(5-Fluoro-indan-1-ylamino)-4H-benzo[d][1,3]oxazin-6-yl]-2-morpholin-4-yl-acetamide]"
4,8.22,"Fc1ccc2c(c1)CCC2NC1=Nc2ccc(Nc3cccc(C(F)(F)F)n3)cc2CO1 (racemic) [Example 57, rac-N^2-(5-Fluoro-indan-1-yl)-N^6-(6-trifluoromethyl-pyridin-2-yl)-4H-benzo[d][1,3]oxazine-2,6-diamine]"
5,8.17,"Fc1ccc2c(c1)CCC2NC1=Nc2ccc(Nc3nccc(C(F)(F)F)n3)cc2CO1 (racemic) [Example 58, rac-N^2-(5-Fluoro-indan-1-yl)-N^6-(4-trifluoromethyl-pyrimidin-2-yl)-4H-benzo[d][1,3]oxazine-2,6-diamine]"
6,8.59,"COc1cccc2c1C(NC1=Nc3ccc(NS(=O)(=O)N(C)C)cc3CO1)CC2 (racemic) [Example 61, rac-N,N-(Dimethyl)-N′-{2-(7-Methoxy-indan-1-ylamino)-4H-benzo[d][1,3]oxazin-6-yl}-sulfamide]"
7,8.39,"CN(C)S(=O)(=O)Nc1ccc2c(c1)COC(NC1CCc3cc(F)ccc31)=N2 (racemic) [Example 64, rac-N,N-(Dimethyl)-N′-{2-(5-Fluoro-indan-1-ylamino)-4H-benzo[d][1,3]oxazin-6-yl}-sulfamide]"
8,7.79,"Nc1ccc2c(c1)COC(NC1CCOc3ccccc31)=N2 (racemic) [Example 75, rac-N^2-Chroman-4-yl-4H-benzo[d][1,3]oxazine-2,6-diamine]"
9,8.15,"COc1cccc2c1C(NC1=Nc3ccc(Nc4nccc(C(F)(F)F)n4)cc3CO1)CC2 (racemic) [Example 81, rac-N^2-(7-Methoxy-indan-1-yl)-N^6-(4-trifluoromethyl-pyrimidin-2-yl)-4H-benzo[d][1,3]oxazine-2,6-diamine]"
10,8.08,"COc1cccc2c1C(NC1=Nc3ccc(NS(C)(=O)=O)cc3CO1)CC2 (racemic) [Example 102, rac-N-[2-(7-Methoxy-indan-1-ylamino)-4H-benzo[d][1,3]oxazin-6-yl]-methanesulfonamide]"
11,8.55,"COc1cccc2c1C(NC1=Nc3ccc(NS(=O)(=O)C4CC4)cc3CO1)CC2 (racemic) [Example 103, rac-Cyclopropanesulfonic acid [2-(7-methoxy-indan-1-ylamino)-4H-benzo[d][1,3]oxazin-6-yl]-amide]"
12,6.80,"COc1cccc2c1C(NC1=Nc3ccc(C#N)cc3CO1)CO2 (racemic) [Example 141, rac-2-(4-Methoxy-2,3-dihydro-benzofuran-3-ylamino)-4H-benzo[d][1,3]oxazine-6-carbonitrile]"
13,7.57,"COc1cccc2c1C(NC1=Nc3ccc(C#N)cc3CO1)CC2 (racemic) [Example 142, rac-2-(7-Methoxy-indan-1-ylamino)-4H-benzo[d][1,3]oxazine-6-carbonitrile]"
14,8.98,"Nc1ccc2c(c1)COC(N[C@@H]1CCc3ccccc31)=N2 [Example 2, (R)-N^2-Indan-1-yl-4H-benzo[d][1,3]oxazine-2,6-diamine]"
15,8.74,"CN1CCN(CC(=O)Nc2ccc3c(c2)COC(N[C@@H]2CCc4ccccc42)=N3)CC1 [Example 3, N-[2-((R)-Indan-1-ylamino)-4H-benzo[d][1,3]oxazin-6-yl]-2-(4-methyl-piperazin-1-yl)-acetamide]"

# More lines, now with the values behind:
row,Compound,pKi
1,"COc1cccc2c1C(NC1=Nc3ccc(NS(=O)(=O)N4CCCCC4)cc3CO1)CO2 (racemic) [Example 50, rac-Piperidine-1-sulfonic acid [2-(4-methoxy-2,3-dihydro-benzofuran-3-ylamino)-4H-benzo[d][1,3]oxazin-6-yl]-amide]",7.57
2,"COc1cccc2c1C(NC1=Nc3ccc(NC(C)=O)cc3CO1)CO2 (racemic) [Example 51, rac-N-[2-(4-Methoxy-2,3-dihydro-benzofuran-3-ylamino)-4H-benzo[d][1,3]oxazin-6-yl]-acetamide]",7.63
3,"COc1cccc2c1C(NC1=Nc3ccc(NC(=O)CN4CCOCC4)cc3CO1)CC2 (racemic) [Example 55, rac-N-[2-(7-Methoxy-indan-1-ylamino)-4H-benzo[d][1,3]oxazin-6-yl]-2-morpholin-4-yl-acetamide]",7.99
4,"COc1cccc2c1C(NC1=Nc3ccc(Nc4cccc(C(F)(F)F)n4)cc3CO1)CO2 (racemic) [Example 59, rac-N^2-(4-Methoxy-2,3-dihydro-benzofuran-3-yl)-N^6-(6-trifluoromethyl-pyridin-2-yl)-4H-benzo[d][1,3]oxazine-2,6-diamine]",8.11
5,"COc1cccc2c1C(NC1=Nc3ccc(Nc4nccc(C(F)(F)F)n4)cc3CO1)CO2 (racemic) [Example 60, rac-N^2-(4-Methoxy-2,3-dihydro-benzofuran-3-yl)-N^6-(4-trifluoromethyl-pyrimidin-2-yl)-4H-benzo[d][1,3]oxazine-2,6-diamine]",7.90
6,"COc1cccc2c1C(NC1=Nc3ccc(NS(=O)(=O)N4CCCCC4)cc3CO1)CC2 (racemic) [Example 62, rac-Piperidine-1-sulfonic acid [2-(7-methoxy-indan-1-ylamino)-4H-benzo[d][1,3]oxazin-6-yl]-amide]",8.49
7,"COc1cccc2c1C(NC1=Nc3ccc(NS(=O)(=O)N4CCOCC4)cc3CO1)CC2 (racemic) [Example 63, rac-Morpholine-4-sulfonic acid [2-(7-methoxy-indan-1-ylamino)-4H-benzo[d][1,3]oxazin-6-yl]-amide]",8.48
8,"COc1cccc2c1C(NC1=Nc3ccc(Nc4cccc(C(F)(F)F)n4)cc3CO1)CC2 (racemic) [Example 80, rac-N^2-(7-Methoxy-indan-1-yl)-N^6-(6-trifluoromethyl-pyridin-2-yl)-4H-benzo[d][1,3]oxazine-2,6-diamine]",8.37
9,"COc1cccc2c1C(NC1=Nc3ccc(NC(=O)CN4CCN(C)CC4)cc3CO1)CC2 (racemic) [Example 86, rac-N-[2-(7-Methoxy-indan-1-ylamino)-4H-benzo[d][1,3]oxazin-6-yl]-2-(4-methyl-piperazin-1-yl)-acetamide]",8.84
10,"O=C(Nc1ccc2c(c1)COC(NC1CCOc3ccccc31)=N2)C1CC1 (racemic) [Example 90, rac-Cyclopropanecarboxylic acid [2-(chroman-4-ylamino)-4H-benzo[d][1,3]oxazin-6-yl]-amide]",8.08
11,"CN(C)S(=O)(=O)Nc1ccc2c(c1)COC(NC1CCOc3ccccc31)=N2 (racemic) [Example 91, rac-N,N-(Dimethyl)-N′-{2-(chroman-4-ylamino)-4H-benzo[d][1,3]oxazin-6-yl}-sulfamide]",7.28
12,"COc1cccc2c1C(NC1=Nc3ccc(NS(=O)(=O)c4ccccc4)cc3CO1)CC2 (racemic) [Example 104, rac-N-[2-(7-Methoxy-indan-1-ylamino)-4H-benzo[d][1,3]oxazin-6-yl]-benzenesulfonamide]",8.06
13,"COc1cccc2c1C(NC1=Nc3ccc(Nc4nnn(C(C)(C)C)n4)cc3CO1)CC2 (racemic) [Example 112, rac-N^6-(2-tert-Butyl-2H-tetrazol-5-yl)-N^2-(7-methoxy-indan-1-yl)-4H-benzo[d][1,3]oxazine-2,6-diamine]",8.34
14,"COc1cccc2c1C(NC1=Nc3ccc(NS(=O)(=O)C4CC4)cc3CO1)CO2 (racemic) [Example 113, rac-Cyclopropanesulfonic acid [2-(4-methoxy-2,3-dihydro-benzofuran-3-ylamino)-4H-benzo[d][1,3]oxazin-6-yl]-amide]",7.90
15,"COc1cccc2c1C(NC1=Nc3ccc(NS(C)(=O)=O)cc3CO1)CO2 (racemic) [Example 114, rac-N-[2-(4-Methoxy-2,3-dihydro-benzofuran-3-ylamino)-4H-benzo[d][1,3]oxazin-6-yl]-methanesulfonamide]",7.52
16,"COc1cccc2c1C(NC1=Nc3ccc(NS(=O)(=O)c4ccccc4)cc3CO1)CO2 (racemic) [Example 115, rac-N-[2-(4-Methoxy-2,3-dihydro-benzofuran-3-ylamino)-4H-benzo[d][1,3]oxazin-6-yl]-benzenesulfonamide]",7.68
17,"CN1CCN(CC(=O)Nc2ccc3c(c2)COC(NC2CCOc4ccccc42)=N3)CC1 (racemic) [Example 120, rac-N-[2-(Chroman-4-ylamino)-4H-benzo[d][1,3]oxazin-6-yl]-2-(4-methyl-piperazin-1-yl)-acetamide]",7.84
18,"O=C(CN1CCOCC1)Nc1ccc2c(c1)COC(NC1CCOc3ccccc31)=N2 (racemic) [Example 121, N-[2-(Chroman-4-ylamino)-4H-benzo[d][1,3]oxazin-6-yl]-2-morpholin-4-yl-acetamide]",6.87
19,"COc1ccccc1CNC1=Nc2ccc([N+](=O)[O-])cc2CO1 [Example 1, (2-Methoxy-benzyl)-(6-nitro-4H-benzo[d][1,3]oxazin-2-yl)-amine]",6.41
20,"COc1ccccc1CNC1=Nc2ccc(N)cc2CO1 [Example 4, N^2-(2-Methoxy-benzyl)-4H-benzo[d][1,3]oxazine-2,6-diamine]",8.22

# Reference: patent US8163740B2, “6-substituted benzoxazines” (Hoffmann-La Roche Inc., priority 2008, dated 2012)
